Measurements from patent US20200206257A1, “HOMOGENEOUS POLY[…]-B4, DERIVED FROM HERBA EPHEDRA, PREPARATION METHOD AND MEDICAL USE THEREOF” (priority 2018, published 2020).
Where “and” joins values, the source holds several entries; their conditions need not be identical. Identical values can stand only once.

Assays:
[1] = tested on: LPS-induced acute lung injury in mice; assay: LPS-induced acute lung injury in mice, inflammatory factors in lung tissue homogenate; format: in vivo; conditions: 50 mg/kg intraperitoneal, 7 days, left lung homogenate, mean±SD
[2] = tested on: Escherichia coli-induced pneumonia in mice; assay: Escherichia coli-induced pneumonia in mice, inflammatory factors in lung tissue homogenate; format: in vivo; conditions: 100 mg/kg intragastric (positive control), 7 days, left lung homogenate, mean±SD

Compound | IL-6 [1] [pg/mL] | IL-8 [1] [pg/mL] | TNF-α [1] [pg/mL] | Tp (Total protein) [1] [µg/mL] | IL-6 [2] [pg/mL] | IL-8 [2] [pg/mL] | TNF-α [2] [pg/mL] | Tp [2] | IL-6 ([2]; listed as gentamicin sulfate) | IL-8 ([2]; listed as gentamicin sulfate) | TNF-α ([2]; listed as gentamicin sulfate)
C[C@@H]1C[C@H]2[C@@H]3CCC4=CC(=O)C=C[C@]4(C)[C@@]3(F)[C@@H](O)C[C@]2(C)[C@@]1(O)C(=O)CO [Dexamethasone, dexamethasone] | 255.18 ± 35.63 | 52.7 ± 9.99 | 861.41 ± 71.04 | 202.40 ± 16.54 | – | – | – | – | – | – | –
gentamicin sulfate [Gentamycin Sulfate] | – | – | – | – | 285.16 ± 32.71 | 49.36 ± 10.01 | 834.10 ± 70.10 | significantly decreased and 197.05 ± 14.20 μg/mL | significantly decreased | significantly decreased | significantly decreased
